Measurements as given in patent US9855239B2, “Methods for the treatment and prevention of age-related retinal dysfunction” (University of Washington, priority 2008, dated 2018).
“Also recorded” adds a separate entry of the source.

Key:
C57BL/6 female mice [1] = assay: Single flash ERG analyses after long-term treatment; type: in vivo, mouse; settings: for a- and b-wave amplitudes, scotopic and photopic single flash ERG: 80 mg/kg
Source text: To evaluate the effects of rod- and cone-mediated light responses after long-term 9-cis-R-Ac treatments, mice were examined by non-invasive ERG methods. The first set of analyses was done at 4 and 10 months of age. Under scotopic conditions, the amplitudes of a-waves decreased with age, especially at high flash intensities (C1 versus C0 group, FIG. 4A, left top panel), whereas the changes in b-waves were less evident (FIG. 4A, right top panel).
The second set of analyses was done at 14 months of age.
(§1) Six groups of mice were studied (FIG. 1B).
(§2) Two weeks after the last gavage with either, 9-cis-R-Ac, all-trans-R-Ac or vehicle, groups of 48 hr dark-adapted mice were analyzed for recovery of dark adaptation after light exposure, purified rhodopsin/opsin and retinoids in the eye and retinal morphology (FIG. 1C; Methods). Mice were exposed to light of intensity 500 cd·m^−2 that bleached ˜90% of rhodopsin, anesthetized and monitored by ERG for one hr to evaluate recovery of dark adaptation. Rhodopsin was purified and rhodopsin/opsin ratios was determined. Retinoid analyses were performed on dissected eyes removed at 0, 10, 30, and 60 min after exposure to the same amount of light. Mice used to evaluate retinal morphology were not exposed to photobleaching prior to analysis.
(§3) ERGs of anesthetized mice were recorded as previously reported.

C57BL/6 female mice [2] = assay: Single-flash ERG after single dose treatment, bleach and dark adaptation; type: in vivo, mouse; settings: single dose ~80 mg/kg gavage, 10-month-old mice, 20 min bleach at 500 cd·m^−2, 16 hr dark adaptation; vs control (a-waves P<0.01)
Description: (§4) Forty eight hr dark-adapted, 10-month-old mice were gavaged with a single dose (˜80 mg/kg body weight) of 9-cis-R-Ac or control vehicle and exposed to strong illumination for 20 min (500 cd·m^−2 that bleached ˜90% rhodopsin). Next, mice were dark-adapted for 16 hr after which various analyses were performed (FIG. 1A). […] To investigate whether 9-cis-retinal was utilized to form isorhodopsin and to assess how much unliganded opsin was present in the mouse eyes, rhodopsin, isorhodopsin and opsin were purified by immunoaffinity chromatography from treated and control groups of mice. […] After bleaching, 9-cis-retinal is bound to opsin even in the presence of a functional retinoid cycle that produces 11-cis-retinal to regenerate rhodopsin. Eyes from non-bleached or bleached and dark-adapted untreated mice contained a small amount of free opsin.
9-cis-R-Ac was prepared as previously described (Batten, M. L., et al. PLoS medicine 2, e333 (2005); Batten, M. L., et al. J Biol Chem 279, 10422-10432 (2004)). A dose of ˜80 mg/kg body weight of 9-cis-R-Ac in 150 μl vegetable oil was administered via gavage to each treated animal. […]
as §3

[3] = mouse, in vivo
Description: Animals were evaluated weekly for activity and changes in coat and skin appearance.
For the long-term study (FIGS. 1B and 1C, Table 1), mice were obtained at 3 months of age and raised until 4 months of age before the experiments were initiated. Mice then were gavaged with 9-cis-R-Ac or vehicle solution once a month for different durations. Six groups of mice were studied (FIG. 1B). The first 3 groups (C0 C1 and C2, total n=35 for each group) were treated as controls and tested at 4, 10 and 14 months of age. The other 3 groups (N1, N2 and N3, n=35) were gavaged with 9-cis-R-Ac. Group N1 was gavaged for 6 months and tested at 10 months of age. Group N2 was gavaged with 9-cis-R-Ac for 10 months and tested at 14 months of age. Group N3, was gavaged with vehicle until 10 months of age and then received 9-cis-R-Ac monthly until testing at 14 months of age.

[4] = Retinoid levels in eyes by HPLC, single dose; type: in vivo, mouse
Description: as §4
9-cis-R-Ac was prepared as previously described (Batten, M. L., et al. PLoS medicine 2, e333 (2005); Batten, M. L., et al. J Biol Chem 279, 10422-10432 (2004)). A dose of ˜80 mg/kg body weight of 9-cis-R-Ac in 150 μl vegetable oil was administered via gavage to each treated animal. Prior to single dose experiments (FIG. 1A, Table 1), 10-month-old mice were dark-adapted for more than 48 hr, gavaged with 9-cis-R-Ac or vehicle control solution 1 hr before bleaching, exposed to light for 20 min at 500 cd·m^−2 and dark-adapted for 16 hr before analysis.
All experimental procedures related to extraction, derivatization and separation of retinoids were carried out under dim red light provided by a Kodak No. 1 safelight filter (transmittance>560 nm) as described previously (Van Hooser, J. P., et al. Proceedings of the National Academy of Sciences of the United States of America 97, 8623-8628 (2000); Van Hooser, J. P., et al. J Biol Chem, 277, 19173-19182 (2002); Maeda, A., et al. J Biol Chem 280, 18822-18832 (2005); Van Hooser, J. P., Garwin, G. G. & Saari, J. C. Methods Enzymol 316, 565-575 (2000)). Eluted fractions of purified rhodopsin from 6 mouse eyes were combined (total 3.0 ml) and mixed with an equal volume of 100% methanol. The mixture was vortexed and incubated on ice for 15 min. Retinoids were extracted twice with an equal volume of 100% hexane (6 ml total). The combined extracts were dried under argon and retinoids were separated by normal phase HPLC (Beckman, Ultrasphere-Si, 5 μm, 4.6×250 mm) with 10% ethyl acetate and 90% hexane at a flow rate of 1.4 ml/min and detected at 325 nm by an HPI 100 HPLC with a diode array detector and HP Chemstation A.03.03 software. A2E was analyzed as previously described (Maeda, A., et al. J Biol Chem, 280, 18822-18832 (2005)).

[5] = Retinoid kinetics in the eyes during dark adaptation, long-term treatment; type: in vivo, mouse; settings: 10 months of age, N1 vs C1, 60 min after the bleach (p<0.01)
Description: (§5) Recovery of the ERG response (dark adaptation) following bleach was measured by monitoring the amplitude of a-waves after retinal exposure to intense constant illumination (500 cd·m^−2, ˜90% bleached rhodopsin) for 3 min. […] Retinoid kinetics in the eyes of each group were quantitatively evaluated during 60 min of dark adaptation after 3 min of bleaching at four subsequent time points of dark adaptation (0, 10, 30, and 60 min). […] Neither 9-cis-retinal nor 9-cis-retinyl esters were found in eyes from untreated groups (data not shown).
as §2, with “analysis. […]” for “analysis.”

C57BL/6 female mice [6] = assay: Recovery of ERG response (dark adaptation) after bleach, long-term treatment; type: in vivo, mouse; settings: 500 cd·m^−2 for 3 min, 60 min dark adaptation
Description: as §5, §1, §2, §3

CC(=O)OC/C=C(C)/C=C/C=C(C)\C=C\C1=C(C)CCCC1(C)C [9-cis-R-Ac, 9-cis-retinyl acetate]
a- and b-wave amplitudes, scotopic and photopic single flash ERG (C57BL/6 female mice [1]; 10 months of age, monthly gavage ~80 mg/kg for 6 months (N1 vs C1), high flash strengths, except a-waves under photopic conditions): slight improvement; also recorded: significantly improved; also recorded: increased significantly
sensitivities and maximal a-wave amplitudes estimated from a-wave maximal responses (C57BL/6 female mice [1]; 14 months of age, dark-adapted mice, treated vs control): not to be significantly different
a- and b-wave amplitudes, scotopic and photopic single flash ERG (C57BL/6 female mice [1]; 14 months of age, monthly gavage ~80 mg/kg (9-cis-R-Ac: N2 and N3), vs control C2): No significant differences; also recorded: largely disappeared
functional a- and b-wave amplitudes, single-flash ERG (C57BL/6 female mice [2]): slightly increased
tolerability of long-term treatment [3]: well tolerated
9-cis-retinal in eyes ([4]; exposed to intense light, treated mice): Significant amounts of 9-cis-retinal were detected; also recorded: detected only in the eyes of 9-cis-R-Ac treated mice
9-cis-retinyl esters in eyes (RPE) ([4]; treated and exposed to intense light): significant amount of 9-cis-retinyl esters; also recorded: easily detectable; also recorded: detected only in the eyes of 9-cis-R-Ac treated mice
amounts of 11-cis-retinal and all-trans-retinyl esters in eyes ([4]; treated vs control): not significantly affected; also recorded: similar
9-cis-retinal in eyes ([4]; unbleached treated mouse eyes): Only trace amounts
regeneration level of 11-cis-retinal in eyes [5]: significantly higher
recovery of ERG a-wave response (dark adaptation) after bleach (C57BL/6 female mice [6]; 10 months of age, N1 vs C1): significantly faster; also recorded: significantly higher; also recorded: restored the rate of recovery to that seen in 4-month-old mice
recovery of ERG a-wave response (dark adaptation) after bleach (C57BL/6 female mice [6]; 14 months of age, treated (9-cis-R-Ac: N2 and N3) vs C2): significantly faster; also recorded: significantly higher recovery rate
